This is an account of results in US20260327191A1, “GSK3a INHIBITORS AND METHODS OF USE THEREOF” (Blueprint Medicines Corporation, priority 2023, published 2026).

As usually defined, the Km is the concentration of substrate that gives half-maximal velocity. The term IC50 denotes the concentration that inhibits the measured activity by half.

Each structure is given as a SMILES string. Where a name gives a salt, the structure may show the parent alone. Read-outs that look alike come from different tables or passages of the source.

The test system of one experiment is GSK3α or GSK3B. Kind of experiment: Measured Km for ATP in the GSK3 in vitro enzymatic activity assay. In kind it is biochemical, human. Particulars: role: substrate; 100 mM HEPES pH 7.5, 10 mM MgCl2; 1.0 μM peptide substrate (5-FAM-KRREILSRRPpSYR-COOH); 25° C. Here is the method: Full length human GSK3α or GSK3B expressed as N-terminal GST fusion proteins in baculovirus host were purchased from Carna Biosciences (Japan). The kinase was pre-incubated with ATP (adenosine-5′-triphosphate) for 45 min, then incubated with tested compounds for another 45 min in assay buffer that contains 100 mM HEPES (N-2-hydroxyethylpiperazine-N′-2-ethanesulfonic acid), pH 7.5, 10 mM MgCl2, 1.0 mM DTT, and 0.015% Briji-35. […] Percent inhibition was plotted against compound concentration to generate 10-point dose response curve with 3-fold serial dilution starting from 10 μM. IC50 value was determined from the 4-parameter logistic curve fitting.

Experiment [1] deals with T1, GSK3B (Homo sapiens, UniProt P49841). Nature of the experiment: In vitro enzymatic activity assay, GSK3β. In kind it is biochemical. To be noted: 1.0 mM ATP, 1.0 μM peptide substrate, 120 min, 25° C. Also noted: Full length human GSK3α or GSK3B expressed as N-terminal GST fusion proteins; GST (N); purchased Carna Biosciences (Japan); host or cells: baculovirus host.
T1 sequence (P49841 whole entry, the tested form may be a part): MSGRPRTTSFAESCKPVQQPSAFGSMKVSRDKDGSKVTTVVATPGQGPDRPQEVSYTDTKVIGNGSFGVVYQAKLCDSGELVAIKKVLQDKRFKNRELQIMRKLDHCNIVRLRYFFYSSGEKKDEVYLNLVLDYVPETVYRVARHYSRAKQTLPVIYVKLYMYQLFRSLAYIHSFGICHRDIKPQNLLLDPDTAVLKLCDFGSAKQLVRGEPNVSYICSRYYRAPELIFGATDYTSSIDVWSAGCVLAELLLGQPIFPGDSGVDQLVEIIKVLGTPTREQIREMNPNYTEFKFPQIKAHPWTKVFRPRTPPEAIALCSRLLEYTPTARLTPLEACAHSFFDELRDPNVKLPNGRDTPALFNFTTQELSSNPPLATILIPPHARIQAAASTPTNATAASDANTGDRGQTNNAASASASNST
Another experiment deals with T2, GSK3A (Homo sapiens, UniProt P49840).
T2 construct: expressed in transfected cells
T2 sequence (P49840 whole entry): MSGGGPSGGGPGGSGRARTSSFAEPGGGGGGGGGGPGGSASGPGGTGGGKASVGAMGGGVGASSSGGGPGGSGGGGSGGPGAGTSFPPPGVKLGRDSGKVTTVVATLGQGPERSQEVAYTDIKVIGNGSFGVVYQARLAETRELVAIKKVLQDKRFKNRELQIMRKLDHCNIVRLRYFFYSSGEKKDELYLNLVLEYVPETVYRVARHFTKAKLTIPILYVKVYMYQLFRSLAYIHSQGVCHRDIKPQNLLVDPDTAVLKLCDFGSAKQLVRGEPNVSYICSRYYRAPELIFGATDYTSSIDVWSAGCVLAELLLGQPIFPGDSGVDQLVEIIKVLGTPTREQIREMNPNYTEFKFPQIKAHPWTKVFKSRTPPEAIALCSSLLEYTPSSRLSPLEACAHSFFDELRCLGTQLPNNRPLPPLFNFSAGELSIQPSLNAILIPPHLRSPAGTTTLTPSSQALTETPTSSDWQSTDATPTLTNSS
Kind of experiment: NanoBRET cellular target engagement assay, Nanoluc-GSK3A in HEK293 cells. In kind it is cell-based. Particulars: NanoBRET GSK3α IC50, HEK293 cells, tracer K-8, 2 hours, 37° C. (BRET reads energy transfer from a luciferase to a nearby fluorophore.)

In experiment [2] the target is T1, GSK3B. Kind of experiment: NanoBRET cellular target engagement assay, Nanoluc-GSK3B in HEK293 cells. In kind it is cell-based. Also noted: expressed in transfected cells. Particulars: NanoBRET GSK3β IC50, HEK293 cells, tracer K-8, 2 hours, 37° C.
The target of the next experiment is T3, human GSK3α (Homo sapiens, UniProt P49840).
T3 construct: Full length human GSK3α or GSK3B expressed as N-terminal GST fusion proteins; GST (N); purchased Carna Biosciences (Japan); host or cells: baculovirus host
T3 sequence (P49840 whole entry, the tested form may be a part): as the sequence (P49840 whole entry) above
Kind of experiment: In vitro enzymatic activity assay, GSK3α. In kind it is biochemical. Particulars: 1.0 mM ATP, 1.0 μM peptide substrate, 120 min, 25° C.

A further experiment concerns GSK3α knockout mice. To be noted: blockade of autophagy and mTOR pathway activation; cited from earlier work.

As for `Nc1ncnc2c1ncn2[C@@H]1O[C@H](COP(=O)(O)OP(=O)(O)OP(=O)(O)O)[C@@H](O)[C@H]1O` [ATP, adenosine-5′-triphosphate], in the experiment with GSK3α or GSK3B, the Km fell in the range of 10 to 15 µM.

Take `Nc1ncn(-c2c(Cl)cc(OC3CC3)cc2Cl)c(=O)c1C(=O)Nc1cncc([C@@H]2CCCN2)c1` [Example 194, (S)-4-amino-1-(2,6-dichloro-4-cyclopropoxyphenyl)-6-oxo-N-(5-(pyrrolidin-2-yl)pyridin-3-yl)-1,6-dihydropyrimidine-5-carboxamide]: the concentration for half-maximal inhibition (IC50) at GSK3B [1] (read-out: Enzyme GSK3β (IC50)) was found to be 302 nM; against GSK3A, 5.1 nM; against GSK3B [2], 330 nM; on human GSK3α (read-out: Enzyme GSK3α (IC50)) it was 6.2 nM.

In the case of `COC(=O)c1cc(Cl)c(-n2cnc(N)c(C(=O)Nc3cncc([C@@H]4CCCCN4)c3)c2=O)c(Cl)c1` [Example 196, methyl(S)-4-(4-amino-6-oxo-5-((5-(piperidin-2-yl)pyridin-3-yl)carbamoyl)pyrimidin-1 (6H)-yl)-3,5-dichlorobenzoate], the IC50 at GSK3B [1] (read-out: Enzyme GSK3β (IC50)) was found to be 400 nM; against GSK3A, 4.2 nM; on GSK3B [2], 242 nM; at human GSK3α (read-out: Enzyme GSK3α (IC50)) it was 6.6 nM.

Consider `CCNCc1cncc(NC(=O)c2c(N)ncn(-c3c(Cl)cc(C(=O)OC)cc3Cl)c2=O)c1` [Example 198, methyl 4-(4-amino-5-((5-((ethylamino)methyl)pyridin-3-yl)carbamoyl)-6-oxopyrimidin-1 (6H)-yl)-3,5-dichlorobenzoate], for which the 50% inhibitory concentration (IC50) on GSK3B [1] (read-out: Enzyme GSK3β (IC50)) amounted to 332 nM; at GSK3A, 3.7 nM; on GSK3B [2], 209 nM; on human GSK3α (read-out: Enzyme GSK3α (IC50)), 5.6 nM.

Consider `CCNCc1cncc(NC(=O)c2c(N)ncn(-c3c(Cl)cc(C(=O)OCC)cc3Cl)c2=O)c1` [Example 199, ethyl 4-(4-amino-5-((5-((ethylamino)methyl)pyridin-3-yl)carbamoyl)-6-oxopyrimidin-1 (6H)-yl)-3,5-dichlorobenzoate], for which the IC50 at GSK3B [1] (read-out: Enzyme GSK3β (IC50)) came to 203 nM; on GSK3A, 2.4 nM; at GSK3B [2], 118 nM; on human GSK3α (read-out: Enzyme GSK3α (IC50)) it was 3.3 nM.

`CCNCc1cncc(NC(=O)c2c(N)ncn(-c3c(Cl)cc(-c4cnco4)cc3Cl)c2=O)c1` [Example 200, 4-amino-1-(2,6-dichloro-4-(oxazol-5-yl)phenyl)-N-(5-((ethylamino)methyl)pyridin-3-yl)-6-oxo-1,6-dihydropyrimidine-5-carboxamide]: the IC50 at GSK3B [1] (read-out: Enzyme GSK3β (IC50)) came to 813 nM; against GSK3A it was 7.6 nM; on GSK3B [2] it was 451 nM; at human GSK3α (read-out: Enzyme GSK3α (IC50)) it was 14.4 nM.

In the case of `CCNCc1cncc(NC(=O)c2c(N)ncn(-c3c(Cl)cc(-c4ncco4)cc3Cl)c2=O)c1` [Example 201, 4-amino-1-(2,6-dichloro-4-(oxazol-2-yl)phenyl)-N-(5-((ethylamino)methyl)pyridin-3-yl)-6-oxo-1,6-dihydropyrimidine-5-carboxamide], the IC50 amounted to 608 nM at GSK3B [1] (read-out: Enzyme GSK3β (IC50)), 7.4 nM against GSK3A, 430 nM at GSK3B [2] and 13.7 nM on human GSK3α (read-out: Enzyme GSK3α (IC50)).

On to `CCNCc1cncc(NC(=O)c2c(N)ncn(-c3c(Cl)cc(CC(F)(F)F)cc3Cl)c2=O)c1` [Example 202, 4-amino-1-(2,6-dichloro-4-(2,2,2-trifluoroethyl)phenyl)-N-(5-((ethylamino)methyl)pyridin-3-yl)-6-oxo-1,6-dihydropyrimidine-5-carboxamide], for which the 50% inhibitory concentration (IC50) on GSK3B [1] (read-out: Enzyme GSK3β (IC50)) came out at 432 nM; against GSK3A it was 5.9 nM; against GSK3B [2], 385 nM; at human GSK3α (read-out: Enzyme GSK3α (IC50)), 8.7 nM.

Regarding `CCNCc1cncc(NC(=O)c2c(N)ncn(-c3c(Cl)cc(CC(F)F)cc3Cl)c2=O)c1` [Example 203, 4-amino-1-(2,6-dichloro-4-(2,2-difluoroethyl)phenyl)-N-(5-((ethylamino)methyl)pyridin-3-yl)-6-oxo-1,6-dihydropyrimidine-5-carboxamide], the IC50 was 318 nM at GSK3B [1] (read-out: Enzyme GSK3β (IC50)), 3.7 nM at GSK3A, 293 nM against GSK3B [2] and 8 nM at human GSK3α (read-out: Enzyme GSK3α (IC50)).

For `COc1cc(C)c(-n2cnc(N)c(C(=O)Nc3cncc([C@H]4CCCCN4)c3)c2=O)c(C)c1` [Example 205, (R)-4-amino-1-(4-methoxy-2,6-dimethylphenyl)-6-oxo-N-(5-(piperidin-2-yl)pyridin-3-yl)-1,6-dihydropyrimidine-5-carboxamide], the 50% inhibitory concentration (IC50) was found to be 238 nM at GSK3B [1] (read-out: Enzyme GSK3β (IC50)), 3.7 nM at GSK3A, 204 nM against GSK3B [2] and 5 nM on human GSK3α (read-out: Enzyme GSK3α (IC50)).

Consider `Cc1cc(CC(=O)O)cc(C)c1-n1cnc(N)c(C(=O)Nc2cncc([C@H]3CCCCN3)c2)c1=O` [Example 207, (R)-2-(4-(4-amino-6-oxo-5-((5-(piperidin-2-yl)pyridin-3-yl)carbamoyl)pyrimidin-1 (6H)-yl)-3,5-dimethylphenyl) acetic acid], for which the IC50 against GSK3B [1] (Enzyme GSK3β (IC50)) is 234 nM; at GSK3A, 966 nM; at GSK3B [2] it was 25000 nM; at human GSK3α (Enzyme GSK3α (IC50)), 5.3 nM.

For the compound `Nc1ncn(-c2c(Cl)cc(N3CCC3)cc2Cl)c(=O)c1C(=O)Nc1cncc([C@@H]2CCCCN2)c1` [Example 209, (S)-4-amino-1-(4-(azetidin-1-yl)-2,6-dichlorophenyl)-6-oxo-N-(5-(piperidin-2-yl)pyridin-3-yl)-1,6-dihydropyrimidine-5-carboxamide], the IC50 turned out to be 383 nM at GSK3B [1] (read-out: Enzyme GSK3β (IC50)), 5.9 nM on GSK3A, 300 nM against GSK3B [2] and 5.2 nM at human GSK3α (read-out: Enzyme GSK3α (IC50)).

Turning to `Cc1cc(C(F)(F)F)cc(C)c1-n1cnc(N)c(C(=O)Nc2cncc([C@H]3CCCCN3)c2)c1=O` [Example 216, (R)-4-amino-1-(2,6-dimethyl-4-(trifluoromethyl)phenyl)-6-oxo-N-(5-(piperidin-2-yl)pyridin-3-yl)-1,6-dihydropyrimidine-5-carboxamide], the IC50 on GSK3B [1] (read-out: Enzyme GSK3β (IC50)) was found to be 293 nM; against GSK3A, 3.4 nM; against GSK3B [2], 173 nM; at human GSK3α (read-out: Enzyme GSK3α (IC50)) it was 5.6 nM.

Turning to `CCOc1c(CN)cccc1NC(=O)c1c(N)ncn(-c2c(Cl)cccc2Cl)c1=O` [Example 220, 4-amino-N-(3-(aminomethyl)-2-ethoxyphenyl)-1-(2,6-dichlorophenyl)-6-oxo-1,6-dihydropyrimidine-5-carboxamide], the IC50 was 308 nM at GSK3B [1] (read-out: Enzyme GSK3β (IC50)), 8.1 nM on GSK3A, 259 nM on GSK3B [2] and 11.7 nM on human GSK3α (read-out: Enzyme GSK3α (IC50)).

Turning to `COc1c(CN)cccc1NC(=O)c1c(N)ncn(-c2c(Cl)cccc2Cl)c1=O` [Example 221, 4-amino-N-(3-(aminomethyl)-2-methoxyphenyl)-1-(2,6-dichlorophenyl)-6-oxo-1,6-dihydropyrimidine-5-carboxamide trifluoroacetate], the IC50 worked out at 400 nM at GSK3B [1] (read-out: Enzyme GSK3β (IC50)), 7.3 nM at GSK3A, 235 nM against GSK3B [2] and 15.6 nM at human GSK3α (read-out: Enzyme GSK3α (IC50)).

Regarding `CO[C@H]1C[C@@H]2CC[C@@H](C)[C@@](O)(O2)C(=O)C(=O)N2CCCC[C@H]2C(=O)O[C@H]([C@H](C)C[C@@H]2CC[C@@H](OCCO)[C@H](OC)C2)CC(=O)[C@H](C)/C=C(\C)[C@@H](O)[C@@H](OC)C(=O)[C@H](C)C[C@H](C)/C=C/C=C/C=C/1C` [everolimus], the “reversal of mild aging phenotypes of GSK3α knockout mice” value with GSK3α knockout mice is “could be reversed”.
